# Results as given in patent publication US6025333A, “Treatment of CNS tumors with metalloprotease inhibitors” (Erziehungsdirektion of the Canton Zurich, priority 1995, dated 2000).
# Where two headings read alike, the source gives them in different places. Square brackets hold non-standard residues; d marks the D form. Peptide text beside a SMILES is read from it. * marks the point of attachment. Sta = CC(C)C[C@H](N)[C@@H](O)CC(=O)O; Isovaleryl = CC(C)CC(=O)*; Cbz = O=C(OCc1ccccc1)*
# How the values were obtained:
# C6 cells = assay: C6 cell spreading on PLYS or CNS myelin with protease inhibitors; type: cell-based, rat; settings: for Spreading on: CNS (% of control on PLYS) / activity at 300 µM / Spreading on: PLYS (% of control on PLYS): 150 minutes; for activity at 300 µM / inhibition at 300 µM: Rattus norvegicus; for activity at 300 µM: C6, 2.5 h; for inhibition at 300 µM: C6; for effect on C6 cell spreading on CNS myelin: Table X
# Description: Rat C6, mouse NIH 3T3 and B16 cells were cultured in Dulbecco's modified Eagle's medium (DMEM) supplemented with 10% fetal calf serum (FCS), usually to maximally 70-80% confluency. Cells were harvested with a short trypsin treatment (0.1% in Ca^2+ /Mg^2+ -free Hank's medium for 90 seconds) stopped by addition of FCS in excess, collected by centrifugation. Cells were resuspended in either DMEM/FCS or defined serum-free medium (MEM) and used for experiments. Dissociated rat CNS glial cells were prepared starting from optic nerves of 6-7 days old Lewis rats as described in Section 6.1.1, supra and plated into poly-D-lysine (PLYS) coated wells (100 mm^2, 100 μl medium) at a density of 20,000 cells per well. The culture medium was an enriched L15 medium with 5% rat serum, penicillin and streptomycin. C6, 3T3 and B16 cells were added to 2 day old cultures at a concentration of 30,000 cells per well, incubated for two hours and fixed with warm 4% formalin in phosphate buffer. Inhibitory oligodendrocytes were identified by double labelling using the specific antibodies O1 and O4 (see Section 6.1.3, supra).
# (§1) Myelin from rat spinal cord (CNS) or sciatic nerve (PNS) purified on a discontinuous sucrose gradient as described in Section 6.1.5., was dried overnight onto PLYS coated wells (20 μg protein/well of 100 mm^2 surface). Unbound membranes were removed by three washes with Ca^2+ /Mg^2+ -free Hank's solution. Myelin coated wells were immediately used in substrate testing assays by the addition of 9,000 cells (C6, 3T3, or B16) per cm^2. Alternatively, we used extracted CNS myelin protein, or SDS-PAGE purified 35 and 250 kD inhibitory proteins reconstituted in liposomes (see Section 7.1.5, supra). Experiments were scored at different time points using a phase contrast microscope equipped with a photocamera. Quantifications were done using a surface integration program; three arbitrary fields were photographed for each well at a magnitude of 80×, at least 25 cells per picture were measured. Each point represents the mean of at least 3 wells±SEM. Results are expressed as μ^2 of projected cell surface, or as degree, which was calculated by subtracting from the projected surface value of a spreading cell, the surface value of a completely spheric cell.
# 3T3 cells = assay: Treatment of CNS myelin with C6 plasma membranes, then 3T3 spreading and 3H-thymidine incorporation; type: cell-based, mouse; settings: blockers added to C6 plasma membranes
# Description: as §1
# C6 cells grown to 80% confluency were washed twice with Hank's medium, and harvested in 20 ml 8.5% sucrose, 50 mM NaCl, 10 mM Tris buffer, pH 7.4, using a rubber policeman. After mechanical homogenization through a series of needles of decreasing size, a low purity plasma membrane fraction was obtained by centrifugation (5 minutes at 3000× g, 10 minutes at 8000× g, and then 2 hours at 100,000× g). A higher purity fraction was isolated by loading the material on a discontinuous sucrose gradient, containing 50 mM NaCl, 10 mM Tris, pH 7.4 (Quigley, 1976, J. Cell Biol. 71: 472-486). 20-40% sucrose interphase (C6 plasma membranes fraction) and 40-60% sucrose interphase (C6 mitochondrial fraction) were collected, washed in Hank's medium and resuspended in MEM.
# CNS myelin coated PLYS wells were prepared as described in the previous section, but instead of being immediately tested as substrate, they were first incubated with 50 μl of C6 plasma membranes (containing 0.8 mg protein/ml MEM) at 37° for 30 minutes. Dishes were then rinsed twice with Hank's medium and immediately used as substrates for 3T3 cells. In some experiments, protease blockers were added to the membranes using 10 times concentrated solutions.
# [1] = inhibitor 1.0 mM, PLYS value minus CNS myelin value
# [2] = inhibitor 0.3 mM, CNS myelin, read-out: Spreading on: CNS (% of control on PLYS)
# [3] = inhibitor 0.3 mM, PLYS value minus CNS myelin value
molecule,measurement,setting,value
NC(=O)CNC(=O)CNC(=O)OCc1ccccc1 [cbz-gly-gly-NH2] (Cbz-Gly-Gly-NH2),Spreading on: CNS (% of control on PLYS),"C6 cells; inhibitor 1.0 mM, CNS myelin",99 % of control on PLYS
same,Inhibition on CNS (%),C6 cells; [1],1%
CC(C)C[C@H](NP(=O)(O)O[C@@H]1O[C@@H](C)[C@H](O)[C@@H](O)[C@H]1O)C(=O)N[C@@H](Cc1c[nH]c2ccccc12)C(=O)O [phosphoramidon],activity at 300 µM,C6 cells; [2],91%
same,inhibition at 300 µM,C6 cells; [3],9%
same,effect on C6 cell spreading on CNS myelin,C6 cells,did not impair C6 cell spreading
carbobenzoxy-glycine-phenylalanine-amide [cbz-gly-phe-NH2],effect on the C6 plasma membrane effect (neutralization of CNS myelin inhibitory activity),3T3 cells,completely blocked
same,inhibition of C6 cell spreading on CNS myelin,C6 cells,55%
same,Spreading on: PLYS (% of control on PLYS),C6 cells; inhibitor 1.0 mM,100 % of control on PLYS
same,Spreading on: CNS (% of control on PLYS),"C6 cells; inhibitor 1.0 mM, CNS myelin",45 % of control on PLYS
same,Inhibition on CNS (%),C6 cells; [1],55%
CC(C)C[C@H](NC(=O)[C@@H](O)[C@H](N)Cc1ccccc1)C(=O)O [bestatine],effect on C6 cell spreading on CNS myelin,C6 cells,did not impair C6 cell spreading
same,Inhibition on CNS (%),C6 cells; inhibitor 0.1 mM,0%
same,Spreading on: CNS (% of control on PLYS),"C6 cells; inhibitor 0.1 mM, CNS myelin",104 % of control on PLYS
"O=S(=O)(F)Cc1ccccc1 [PMSF, Phenyl methyl sulfonyl fluoride]",Spreading on: PLYS (% of control on PLYS),C6 cells; inhibitor 4.0 mM,100 % of control on PLYS
same,Spreading on: CNS (% of control on PLYS),"C6 cells; inhibitor 4.0 mM, CNS myelin",94 % of control on PLYS
same,Inhibition on CNS (%),"C6 cells; inhibitor 4.0 mM, PLYS value minus CNS myelin value",6%
"CC(C)C[C@H](NC(=O)[C@H](Cc1ccccc1)NCC(=O)O)C(=O)O [cm-phe-leu, Carboxymethyl-phe-leu]",effect on C6 cell spreading on CNS myelin,C6 cells,did not inhibit C6 cell spreading
same,Spreading on: PLYS (% of control on PLYS),C6 cells; inhibitor 0.5 mM,95 % of control on PLYS
same,Spreading on: CNS (% of control on PLYS),"C6 cells; inhibitor 0.5 mM, CNS myelin",92 % of control on PLYS
same,Inhibition on CNS (%),"C6 cells; inhibitor 0.5 mM, PLYS value minus CNS myelin value",3%
CC(=O)N[C@@H](CC(C)C)C(=O)N[C@@H](CC(C)C)C(=O)N[C@H](C=O)CCCNC(=N)N [leupeptine],effect on the C6 plasma membrane effect (neutralization of CNS myelin inhibitory activity),3T3 cells,did not inhibit this effect
same,Spreading on: PLYS (% of control on PLYS),C6 cells; inhibitor 0.3 mM,91 % of control on PLYS
same,Spreading on: CNS (% of control on PLYS),"C6 cells; inhibitor 0.3 mM, CNS myelin",83 % of control on PLYS
same,Inhibition on CNS (%),C6 cells; [3],8%
CC(C)CC(=O)N[C@H](C(=O)N[C@H](C(=O)N[C@@H](CC(C)C)[C@@H](O)CC(=O)N[C@@H](C)C(=O)N[C@@H](CC(C)C)[C@@H](O)CC(=O)O)C(C)C)C(C)C [pepstatine] (Isovaleryl-VV[Sta]A[Sta]-OH),effect on the C6 plasma membrane effect (neutralization of CNS myelin inhibitory activity),3T3 cells,did not inhibit this effect
same,activity at 300 µM,"C6 cells; inhibitor 0.3 mM, read-out: Spreading on: PLYS (% of control on PLYS)",98%
same,activity at 300 µM,C6 cells; [2],95%
same,inhibition at 300 µM,C6 cells; [3],3%
"2-macroglobulin: general protease inhibitor (protein, UniProt P01023 24-1474, looked up) Alpha-2-macroglobulin: SVSGKPQYMVLVPSLLHTETTEKGCVLLSYLNETVTVSASLESVRGNRSLFTDLEAENDVLHCVAFAVPKSSSNEEVMFLTVQVKGPTQEFKKRTTVMVKNEDSLVFVQTDKSIYKPGQTVKFRVVSMDENFHPLNELIPLVYIQDPKGNRIAQWQSFQLEGGLKQFSFPLSSEPFQGSYKVVVQKKSGGRTEHPFTVEEFVLPKFEVQVTVPKIITILEEEMNVSVCGLYTYGKPVPGHVTVSICRKYSDASDCHGEDSQAFCEKFSGQLNSHGCFYQQVKTKVFQLKRKEYEMKLHTEAQIQEEGTVVELTGRQSSEITRTITKLSFVKVDSHFRQGIPFFGQVRLVDGKGVPIPNKVIFIRGNEANYYSNATTDEHGLVQFSINTTNVMGTSLTVRVNYKDRSPCYGYQWVSEEHEEAHHTAYLVFSPSKSFVHLEPMSHELPCGHTQTVQAHYILNGGTLLGLKKLSFYYLIMAKGGIVRTGTHGLLVKQEDMKGHFSISIPVKSDIAPVARLLIYAVLPTGDVIGDSAKYDVENCLANKVDLSFSPSQSLPASHAHLRVTAAPQSVCALRAVDQSVLLMKPDAELSASSVYNLLPEKDLTGFPGPLNDQDNEDCINRHNVYINGITYTPVSSTNEKDMYSFLEDMGLKAFTNSKIRKPKMCPQLQQYEMHGPEGLRVGFYESDVMGRGHARLVHVEEPHTETVRKYFPETWIWDLVVVNSAGVAEVGVTVPDTITEWKAGAFCLSEDAGLGISSTASLRAFQPFFVELTMPYSVIRGEAFTLKATVLNYLPKCIRVSVQLEASPAFLAVPVEKEQAPHCICANGRQTVSWAVTPKSLGNVNFTVSAEALESQELCGTEVPSVPEHGRKDTVIKPLLVEPEGLEKETTFNSLLCPSGGEVSEELSLKLPPNVVEESARASVSVLGDILGSAMQNTQNLLQMPYGCGEQNMVLFAPNIYVLDYLNETQQLTPEIKSKAIGYLNTGYQRQLNYKHYDGSYSTFGERYGRNQGNTWLTAFVLKTFAQARAYIFIDEAHITQALIWLSQRQKDNGCFRSSGSLLNNAIKGGVEDEVTLSAYITIALLEIPLTVTHPVVRNALFCLESAWKTAQEGDHGSHVYTKALLAYAFALAGNQDKRKEVLKSLNEEAVKKDNSVHWERPQKPKAPVGHFYEPQAPSAEVEMTSYVLLAYLTAQPAPTSEDLTSATNIVKWITKQQNAQGGFSSTQDTVVALHALSKYGAATFTRTGKAAQVTIQSSGTFSSKFQVDNNNRLLLQQVSLPELPGEYSMKVTGEGCVYLQTSLKYNILPEKEEFPFALGVQTLPQTCDEPKAHTSFQISLSVSYTGSRSASNMAIVDVKMVSGFIPLKPTVKMLERSNHVSRTEVSSNHVLIYLDKVSNQTLSLFFTVLQDVPVRDLKPAIVKVYDYYETDEFAIAEYNAPCSKDLGNA",Spreading on: PLYS (% of control on PLYS),C6 cells; inhibitor 3.0 μM,70 % of control on PLYS
same,Spreading on: CNS (% of control on PLYS),"C6 cells; inhibitor 3.0 μM, CNS myelin",52 % of control on PLYS
same,Inhibition on CNS (%),"C6 cells; inhibitor 3.0 μM, PLYS value minus CNS myelin value",18%
